Tests used:
[1] = tested on: patients with chronic schizophrenia; experiment: PANSS total score, Clinical Study Four; type: in vivo, human; conditions: FAS; for Change from Baseline in PANSS Total Score, Difference to PBO Mean / Adjusted Mean Change from Baseline in PANSS Total Score, Least Squares Estimates Mean / PANSS total, Adjusted Mean Change from Baseline (LS mean): ANCOVA; for PANSS total, Adjusted Mean Change from Baseline (LS mean): BX20 = 20 mg, BX30 = 30 mg
Description: (§1) METHODOLOGY: This study was a multinational, multicenter, randomized, double-blind, parallel-group, placebo-controlled, fixed-dose study. The study consisted of a 3- to 6-day antipsychotic-free run-in period, after which patients were randomised to 6 months of double-blind treatment with fixed doses of bifeprunox (20 mg/day (BX20) or 30 mg/day (BX30)) or placebo (PBO). Patients allocated to the BX groups were up-titrated from 0.25 mg/day over 7 days (BX20) or 8 days (BX30), and then continued on these doses for the remainder of the study. […] At predetermined time points, blood samples were obtained for drug concentration analysis of BX and its major metabolites (3′- and 4′-sulfate conjugates of BX), and pharmaco-economic assessments were performed.

serum proteins = experiment: Binding to serum proteins
[2] = tested on: patients with chronic schizophrenia; experiment: CGI-S score, Clinical Study Four; type: in vivo, human; conditions: FAS, ANCOVA; for CGI-S, Adjusted Mean Change from Baseline (LS mean): LOCF; for mean CGI-S scores, time points of statistically significant superiority to PBO: per-visit LOCF analysis
Description: as §1

For `O=c1[nH]c2cccc(N3CCN(Cc4cccc(-c5ccccc5)c4)CC3)c2o1` [Bifeprunox, 7-[4-([1,1′-biphenyl]-3-ylmethyl)-1-piperazinyl]-2(3H)-benzoxazolone], the “Change from Baseline in PANSS Total Score, Difference to PBO Mean” value (from here on “Change from Baseline … Difference to PBO Mean”) ([1]; Day 63, OC, listed as BX20) was −4.52, the “Adjusted Mean Change from Baseline in PANSS Total Score, Least Squares Estimates Mean” value ([1]; Day 63, OC, listed as BX30) was −12.45 and the “Change from Baseline … Difference to PBO Mean” value ([1]; Day 63, OC, listed as BX30) was −4.12. The “Adjusted Mean Change from Baseline in PANSS Total Score, Least Squares Estimates Mean” value ([1]; Day 63, POCF, listed as BX20) was −10.03, the “Change from Baseline … Difference to PBO Mean” value ([1]; Day 63, POCF, listed as BX20) was −4.83 and the “Adjusted Mean Change from Baseline in PANSS Total Score, Least Squares Estimates Mean” value ([1]; Day 63, POCF, listed as BX30) was −8.97. The “Change from Baseline … Difference to PBO Mean” value ([1]; Day 63, POCF, listed as BX30) was −3.77, the “Adjusted Mean Change from Baseline in PANSS Total Score, Least Squares Estimates Mean” value ([1]; Day 90, LOCF, listed as BX20) was −2.18 and the “Change from Baseline … Difference to PBO Mean” value ([1]; Day 90, LOCF, listed as BX20) was −5.85. The “Adjusted Mean Change from Baseline in PANSS Total Score, Least Squares Estimates Mean” value ([1]; Day 90, LOCF, listed as BX30) was −1.47, the “Change from Baseline … Difference to PBO Mean” value ([1]; Day 90, LOCF, listed as BX30) was −5.14 and the “Adjusted Mean Change from Baseline in PANSS Total Score, Least Squares Estimates Mean” value ([1]; Day 90, OC, listed as BX20) was −14.17. The “Change from Baseline … Difference to PBO Mean” value ([1]; Day 90, OC, listed as BX20) was −4.92, the “Adjusted Mean Change from Baseline in PANSS Total Score, Least Squares Estimates Mean” value ([1]; Day 90, OC, listed as BX30) was −12.71 and the “Change from Baseline … Difference to PBO Mean” value ([1]; Day 90, OC, listed as BX30) was −3.46. The “Adjusted Mean Change from Baseline in PANSS Total Score, Least Squares Estimates Mean” value ([1]; Day 90, POCF, listed as BX20) was −10.43, the “Change from Baseline … Difference to PBO Mean” value ([1]; Day 90, POCF, listed as BX20) was −5.19 and the “Adjusted Mean Change from Baseline in PANSS Total Score, Least Squares Estimates Mean” value ([1]; Day 90, POCF, listed as BX30) was −9.25. The “Change from Baseline … Difference to PBO Mean” value ([1]; Day 90, POCF, listed as BX30) was −4.00, the “Adjusted Mean Change from Baseline in PANSS Total Score, Least Squares Estimates Mean” value ([1]; Day 120, LOCF, listed as BX20) was −1.20 and the “Change from Baseline … Difference to PBO Mean” value ([1]; Day 120, LOCF, listed as BX20) was −6.50. For the same compound, the “Adjusted Mean Change from Baseline in PANSS Total Score, Least Squares Estimates Mean” value ([1]; Day 120, LOCF, listed as BX30) was −0.84, the “Change from Baseline … Difference to PBO Mean” value ([1]; Day 120, LOCF, listed as BX30) was −6.14 and the “Adjusted Mean Change from Baseline in PANSS Total Score, Least Squares Estimates Mean” value ([1]; Day 120, OC, listed as BX20) was −15.81. The “Change from Baseline … Difference to PBO Mean” value ([1]; Day 120, OC, listed as BX20) was −5.45, the “Adjusted Mean Change from Baseline in PANSS Total Score, Least Squares Estimates Mean” value ([1]; Day 120, OC, listed as BX30) was −14.56 and the “Change from Baseline … Difference to PBO Mean” value ([1]; Day 120, OC, listed as BX30) was −4.19. The “Adjusted Mean Change from Baseline in PANSS Total Score, Least Squares Estimates Mean” value ([1]; Day 120, POCF, listed as BX20) was −10.30, the “Change from Baseline … Difference to PBO Mean” value ([1]; Day 120, POCF, listed as BX20) was −5.21 and the “Adjusted Mean Change from Baseline in PANSS Total Score, Least Squares Estimates Mean” value ([1]; Day 120, POCF, listed as BX30) was −9.68. The “Change from Baseline … Difference to PBO Mean” value ([1]; Day 120, POCF, listed as BX30) was −4.59, the “Adjusted Mean Change from Baseline in PANSS Total Score, Least Squares Estimates Mean” value ([1]; Day 150, LOCF, listed as BX20) was −0.56 and the “Change from Baseline … Difference to PBO Mean” value ([1]; Day 150, LOCF, listed as BX20) was −7.04. For the same compound, the “Adjusted Mean Change from Baseline in PANSS Total Score, Least Squares Estimates Mean” value ([1]; Day 150, LOCF, listed as BX30) was −0.31, the “Change from Baseline … Difference to PBO Mean” value ([1]; Day 150, LOCF, listed as BX30) was −6.80 and the “Adjusted Mean Change from Baseline in PANSS Total Score, Least Squares Estimates Mean” value ([1]; Day 150, OC, listed as BX20) was −16.36. The “Change from Baseline … Difference to PBO Mean” value ([1]; Day 150, OC, listed as BX20) was −1.97, the “Adjusted Mean Change from Baseline in PANSS Total Score, Least Squares Estimates Mean” value ([1]; Day 150, OC, listed as BX30) was −15.93 and the “Change from Baseline … Difference to PBO Mean” value ([1]; Day 150, OC, listed as BX30) was −1.54. The “Adjusted Mean Change from Baseline in PANSS Total Score, Least Squares Estimates Mean” value ([1]; Day 150, POCF, listed as BX20) was −10.40, the “Change from Baseline … Difference to PBO Mean” value ([1]; Day 150, POCF, listed as BX20) was −5.20 and the “Adjusted Mean Change from Baseline in PANSS Total Score, Least Squares Estimates Mean” value ([1]; Day 150, POCF, listed as BX30) was −9.55. The “Change from Baseline … Difference to PBO Mean” value ([1]; Day 150, POCF, listed as BX30) was −4.35, the “Adjusted Mean Change from Baseline in PANSS Total Score, Least Squares Estimates Mean” value ([1]; Day 180, LOCF, listed as BX20) was −0.81 and the “Change from Baseline … Difference to PBO Mean” value ([1]; Day 180, LOCF, listed as BX20) was −7.91. For the same compound, the “Adjusted Mean Change from Baseline in PANSS Total Score, Least Squares Estimates Mean” value ([1]; Day 180, LOCF, listed as BX30) was −0.44, the “Change from Baseline … Difference to PBO Mean” value ([1]; Day 180, LOCF, listed as BX30) was −7.54 and the “Adjusted Mean Change from Baseline in PANSS Total Score, Least Squares Estimates Mean” value ([1]; Day 180, OC, listed as BX20) was −18.09. The “Change from Baseline … Difference to PBO Mean” value ([1]; Day 180, OC, listed as BX20) was −3.60, the “Adjusted Mean Change from Baseline in PANSS Total Score, Least Squares Estimates Mean” value ([1]; Day 180, OC, listed as BX30) was −18.58 and the “Change from Baseline … Difference to PBO Mean” value ([1]; Day 180, OC, listed as BX30) was −4.09. For the same compound, the “Adjusted Mean Change from Baseline in PANSS Total Score, Least Squares Estimates Mean” value ([1]; Day 180, POCF, listed as BX20) was −10.84, the “Change from Baseline … Difference to PBO Mean” value ([1]; Day 180, POCF, listed as BX20) was −5.43 and the “Adjusted Mean Change from Baseline in PANSS Total Score, Least Squares Estimates Mean” value ([1]; Day 180, POCF, listed as BX30) was −9.92. For the same compound, the “Change from Baseline … Difference to PBO Mean” value ([1]; Day 180, POCF, listed as BX30) was −4.52, the “PANSS total, Adjusted Mean Change from Baseline (LS mean)” value (“PANSS total, Adjusted Mean Change” for short) ([1]; Month 6, LOCF, listed as BX20) was −4.0 and the “PANSS total, Adjusted Mean Change” value ([1]; Month 6, LOCF, listed as BX30) was −0.4. The “PANSS total, Adjusted Mean Change” value ([1]; Week 6, LOCF, listed as BX20) was −4.0, the “PANSS total, Adjusted Mean Change” value ([1]; Week 6, LOCF, listed as BX30) was −2.6 and the “PANSS total scores versus PBO, LOCF analysis” value ([1]; both BX groups) was “statistically significantly superior to that in the PBO group from Week 6 onwards”. For the same compound, the “bound to serum proteins” value (serum proteins) was “approximately 99%”, the “CGI-S, Adjusted Mean Change from Baseline (LS mean)” value (“CGI-S, Adjusted Mean Change” for short) ([2]; Month 6, listed as BX20) was −0.1 and the “CGI-S, Adjusted Mean Change” value ([2]; Month 6, listed as BX30) was 0.0. For the same compound, the “CGI-S, Adjusted Mean Change” value ([2]; Week 6, listed as BX20) was −0.2, the “CGI-S, Adjusted Mean Change” value ([2]; Week 6, listed as BX30) was −0.1 and the “mean CGI-S scores, time points of statistically significant superiority to PBO” value ([2]; listed as BX20) was “Months 3, 4, 5, and 6”. For the same compound, the “mean CGI-S scores, time points of statistically significant superiority to PBO” value ([2]; listed as BX30) was “Months 5 and 6”.

Source: patent US20090068290A1, “BIFEPRUNOX DOSES FOR TREATING SCHIZOPHRENIA” (priority 2006, published 2009)
